Numbered stars: 1 amine (or outer) side, 2 acyl side, 3 side chain; on linkers, the order of the positions; unused ones are H or OH. Bridge positions count the residues as written; N and C are the ends. Square brackets hold non-standard residues; d marks the D form. Peptide text beside a SMILES is read from it. I, II: the chains in the order shown. Actinocin(1to9) = Cc1c2oc3c(C)ccc(C(=O)[*:2])c3nc-2c(C(=O)[*:1])c(N)c1=O; Actinocin(9to1) = Cc1c2oc3c(C)ccc(C(=O)[*:1])c3nc-2c(C(=O)[*:2])c(N)c1=O; NMeV = CN[CH](C(=O)O)C(C)C; Sar = CNCC(=O)O
Target: Growth factor receptor-bound protein 2 (Homo sapiens, UniProt P62993)
Experiment: Inhibition of GST-Grb2 Tyrosine kinase SH2 domain binding to [3H]labeled-phosphopeptide (Ac-SpYVNK-NH-C(O)-CH2CH2H3)

Row | IC50 [µM] | Compound
1 | 7.6 | CCC(C)C1NC(=O)C(NC(=O)c2c3nc4c(C(=O)NC5C(=O)NC(C(C)CC)C(=O)N6CCCC6C(=O)N(C)CC(=O)N(C)C(C(C)C)C(=O)OC5C)ccc(C)c4oc-3c(C)c(=O)c2N)C(C)OC(=O)C(C(C)C)N(C)C(=O)CN(C)C(=O)C2CCCN2C1=O (stereo not drawn) (I: TIP[Sar][NMeV] / II: TIP[Sar][NMeV]; ester I:1-I:C, II:1-II:C; linker I:N-II:N via Actinocin(1to9); configuration not given here)
2 | 5.9 | CC[C@H](C)[C@@H]1NC(=O)[C@@H](NC(=O)c2ccc(C)c3oc4c(C)c(=O)c(N)c(C(=O)N[C@@H]5C(=O)N[C@@H](C(C)C)C(=O)N6CCC[C@H]6C(=O)N(C)CC(=O)N(C)[C@@H](C(C)C)C(=O)O[C@@H]5C)c-4nc23)[C@@H](C)OC(=O)[C@H](C(C)C)N(C)C(=O)CN(C)C(=O)[C@@H]2CCCN2C1=O (I: TIP[Sar][NMeV] / II: TVP[Sar][NMeV]; ester I:1-I:C, II:1-II:C; linker I:N-II:N via Actinocin(9to1))
3 | 5 | Cc1c2oc3c(C)ccc(C(=O)N[C@@H]4C(=O)N[C@H](C(C)C)C(=O)N5CCC[C@H]5C(=O)N(C)CC(=O)N(C)[C@@H](C(C)C)C(=O)O[C@@H]4C)c3nc-2c(C(=O)N[C@@H]2C(=O)N[C@H](C(C)C)C(=O)N3CCC[C@H]3C(=O)N(C)CC(=O)N(C)[C@@H](C(C)C)C(=O)O[C@@H]2C)c(N)c1=O [DACTINOMYCIN] (I: T[dV]P[Sar][NMeV] / II: T[dV]P[Sar][NMeV]; ester I:1-I:C, II:1-II:C; linker I:N-II:N via Actinocin(9to1))
